US10662156B2, “Guanidine derivative and medical use thereof” (Toray Industries, Inc., priority 2016, dated 2020)

Tested on: imiquimod-induced psoriasis mouse models
Experiment: Suppressive effect on auricular hypertrophy in imiquimod-induced psoriasis mouse model
Format: in vivo, BALB/c male mice
Settings: for change in the thickness of the auricle (increase): post-induction days 4 to 7, post-induction day 8 vs before induction, vehicle group 198 μm; for change in the thickness of the auricle compared to the vehicle administration group (in words): P<0.05
Procedure: The guanidine derivative (I) or the pharmacologically acceptable salt thereof was evaluated for its exertion of a therapeutic effect on psoriasis, one type of autoimmune disease, in an in vivo experimental system using imiquimod-induced psoriasis mouse models in accordance with the method described in the literature (The Journal of Dermatological Science, 2014, Vol. 76, No. 2, p. 96-103). Specifically, the evaluation was conducted by verifying the suppressive effect of the compound on auricular hypertrophy by using, as an index, the thickness of the auricle increased with the progression of symptoms in imiquimod-induced psoriasis models.
Seven-week-old BALB/c male mice (Charles River Laboratories Japan, Inc.) were preliminarily bred and then used at the age of 8 weeks. To induce psoriasis-like symptoms, 5 mg/ear of Beselna Cream 5% was applied (imiquimod dose: 0.25 mg/body/day) to both the ears of each mouse once a day for 8 days from the date of initial administration of imiquimod (hereinafter, referred to as post-induction day 0) to post-induction day 7. A dosing vehicle was prepared by adding Tween 20 to a 0.5% (w/v) aqueous methylcellulose solution to attain a final concentration of 0.025% (v/v). A test compound was suspended in the dosing vehicle to prepare a drug solution. The drug solution was orally administered (dosing volume: 10 mL/kg) twice a day (a.m. and p.m.) for 4 days from post-induction days 4 to 7. The test compound used was the compound of Example 2, and groups given the compound of Example 2 were designated as Example 2 compound administration groups. A group given only the dosing vehicle in the same way as above was established as a vehicle administration group.
The thickness of the auricle before imiquimod administration (before induction) at the date of induction and the thickness of the auricle at post-induction day 8 were measured using a digital micrometer (Mitsutoyo Corp.), and the change therebetween (the thickness of the auricle at post-induction day 8—the thickness of the auricle before induction) was used as an index for drug efficacy evaluation. Statistical analysis was carried out using statistical analysis software EXSAS (ver. 7.6). As a result of studying homoscedasticity among the groups by the Bartlett's test, the variance was homogeneous. Therefore, the parametric Dunnett test (two-tailed) was carried out. As for the drug dependence of the drug efficacy of the compound of Example 2 on auricular hypertrophy, as a result of studying homoscedasticity between the vehicle group and each compound administration group by the Bartlett's test, the variance was homogeneous. Therefore, the Williams test (two-tailed) was carried out. P<0.05 was confirmed as significant difference.
The ordinate of the drawing depicts the change in the thickness of the auricle (μm), and the abscissa depicts each administration group. The term “Compound of Example 2” depicts the Example 2 compound administration groups.

Cl.N/C(=N\S(=O)(=O)c1ccccc1)NCc1cnc(-c2ccc(Cl)cc2)c(-c2ccc(Cl)cc2)c1 [Compound of Example 2, N-(amino(((5,6-bis(4-chlorophenyl)pyridin-3-yl)methyl)amino)methylene)benzenesulfonamide Hydrochloride]
change in the thickness of the auricle (increase) (7.5 mg/kg orally twice a day): 179 μm | change in the thickness of the auricle (increase) (15 mg/kg orally twice a day): 131 μm | change in the thickness of the auricle compared to the vehicle administration group (in words) (15 mg/kg orally twice a day): significantly decreased | change in the thickness of the auricle (increase) (30 mg/kg orally twice a day): 118 μm | change in the thickness of the auricle compared to the vehicle administration group (in words) (30 mg/kg orally twice a day): significantly decreased
